# From the NIST ThermoML archive (doi:10.1021/je400408w)
# Numbers after ± are expanded uncertainties.
# Key:
# [1] = 101.33 kPa, Liquid; for speed of sound: Pulse-echo method; for mass density: Vibrating tube method
# [2] = molar heat capacity at constant pressure; settings: 100 kPa, Liquid
structure (smiles),measurement,setting,value
Cc1ccccc1Cl [2-chlorotoluene],speed of sound,[1]; 293.15 K,1316.8 ± 2.1 m/s
same,mass density,[1]; 293.15 K,1082.22 ± 1 kg/m3
same,speed of sound,[1]; 298.15 K,1298.7 ± 2.1 m/s
same,mass density,[1]; 298.15 K,1077.34 ± 1 kg/m3
same,speed of sound,[1]; 303.15 K,1280.7 ± 2.1 m/s
same,mass density,[1]; 303.15 K,1072.46 ± 0.99 kg/m3
same,molar heat capacity at constant pressure,[2]; 293.15 K,176.43 ± 1.6 J/K/mol
same,molar heat capacity at constant pressure,[2]; 298.15 K,178.21 ± 1.6 J/K/mol
same,molar heat capacity at constant pressure,[2]; 303.15 K,180.01 ± 1.7 J/K/mol
